Patent publication US8071763B2, “Methods for treatment of nocturia” (Daiichi Sankyo Company, Limited, priority 2002, dated 2011)

How the values were obtained:
patients with nocturia = assay: Continuation and termination of loxoprofen administration after the trial treatment; type: in vivo, human
Protocol: After the initial study, loxoprofen was administered at the patients' discretion; 101 continued loxoprofen therapy for =320 (mean 61) days. After the evaluation, loxoprofen therapy was continued or not according to the patients' wishes (Table 5). Of 101 excellent and improved patients, 11 continued to take loxoprofen every night and 43 when necessary. The improvement of nocturia lasted for several months even after discontinuation of therapy in 11 (10%) who discontinued loxoprofen after 5 to 310 days' administration. In addition, in five patients in whom loxoprofen's effectiveness reduced after continuous administration, the effectiveness recovered with occasional administration following withdrawal for several weeks.

nocturia = assay: Single BPH patient taking a loxoprofen sodium tablet before sleeping; type: in vivo, human; conditions: one patient treated for BPH; 60-mg tablet before sleeping
Protocol: Based on the experience, the inventor conducted a non-randomized trial treatment with loxoprofen, a short-acting nonsteroidal anti-inflammatory drug (NSAID) prodrug usually prescribed at a dosage of 60 mg t.i.d. for the management of pain, in patients bothered by nocturia. […] The invention was achieved on the basis of these findings.

[1] = discontinued after 5 to 310 days' administration
[2] = patients with Excellent Response
[3] = patients with Improved Response

CC(C(=O)O)c1ccc(CC2CCCC2=O)cc1 (stereo not drawn) [loxoprofen, loxoprofen sodium] was tested, and the “Improvement of nocturia lasted for several months after discontinuation of therapy, % of patients” value (patients with nocturia; [1]) was 10%, the “Improvement of nocturia lasted for several months after discontinuation of therapy, no. of patients” value (patients with nocturia; [1]) was 11 and the “Effectiveness reduced after continuous administration and recovered with occasional administration, no. of patients” value (patients with nocturia; following withdrawal for several weeks) was “five”. For the same compound, the “Discontinued therapy due to adverse events, no. of patients” value (patients with nocturia; [2]) was 1, the “Discontinued therapy: cured or stable improvement, no. of patients” value (patients with nocturia; [2]) was 7 and the “Discontinued therapy due to adverse events, no. of patients” value (patients with nocturia; [3]) was 9. The “Discontinued therapy: cured or stable improvement, no. of patients” value (patients with nocturia; [3]) was 4, the “Discontinued therapy: reduced efficacy, no. of patients” value (patients with nocturia; [3]) was 2 and the “Nocturia, voids/night” value (nocturia) was “decreased from a usual of four voids to one void/night”.
